Test results from patent US20250074892A1, “CARBONYL BRIDGED HETEROCYCLIC COMPOUND, AND COMPOSITION AND APPLICATION THEREOF” (BEIJING SCITECH-MQ PHARMACEUTICALS LIMITED, priority 2022, published 2025).

Experiments:
[1] = tested on: L929 cells; test: Inhibition of cell necrosis (CCK8 method), L929 cells; type: cell-based, mouse
Method: (§1) In this assay example 2, under the condition of inducing programmed cell necrosis of HT29 and L929 cell lines, different concentrations of the test compounds were added to test the IC50 of the rescue effect of the test compounds on the programmed necrosis.
(§2) • Compounds: dissolved in DMSO to make a 10 mM solution; • TNF-α: initial concentration of 100 µg/mL; • Z-VAD-FMK: dissolved in DMSO to make a 10 mM solution; • AT-406: dissolved in DMSO to make a 10 mM solution. • Cell lines: HT29 cells were cultured in McCoy's 5A medium containing 10% fetal bovine serum, 100 U/mL penicillin, and 100 µg/mL streptomycin, and L929 cells were cultured in MEM medium containing 10% horse serum, 100 U/mL penicillin, and 100 µg/mL streptomycin.
(§3) 1. The test compound was dissolved in DMSO to form a stock solution, and a gradient dilution was performed; the solution was then diluted with the corresponding culture medium to obtain a solution with 10 times the working concentration.
(§4) 2. The cells in the logarithmic growth phase were diluted with culture medium to a specific cell concentration. 80 µL of the cell suspension was added to a 96-well plate, so that the cell densities of HT29 and L929 were 1.2*10^4 cells/well and 2.0*10^4 cells/well, respectively. The plate was cultured in a 37° C., 5% carbon dioxide incubator overnight.
(§5) 3. […] of the compound solution was added to each well of the 96-well plate inoculated with cells. The compounds to be tested were serially diluted 4-fold to obtain 9 concentrations in duplicate, starting from a maximum concentration of 10 μM. At the same time, a control group without compound addition was set up.
(§6) 4. After the cells were cultured for another 30 minutes, 10 μL of the inducer mixture was added to each well. The final concentrations of Human TNF-α, AT-406 and Z-VAD-FMK in HT29 cells were 20 ng/mL, […] and 20 μM, respectively; and the final concentrations of Murine TNF-α and Z-VAD-FMK in L929 cells were 20 ng/mL and 25 μM, respectively.
(§7) 5. The 96-well plate in which compounds and inducer were added was placed in a 37° C., 5% carbon dioxide incubator for further culture, wherein HT29 cells were cultured for 16 hours and L929 cells were cultured for 4-8 hours. Cell viability was detected by CCK8. GraphPad Prism software was used to prepare a dose-effect curve and IC50 was calculated.

[2] = tested on: HT29 cells; test: Inhibition of cell necrosis (CCK8 method), HT29 cells; type: cell-based, human
Method: as §1, §2, §3, §4, §5, §6, §7

O=C(C1CCN(c2nccc(-c3ccccc3)n2)CC1)N1N=CCC1c1ccccc1 (stereo not shown) [compound 2, reference compound]
inhibitory activity against mouse L929 cells ([1]; L929 necrosis): almost no inhibitory activities | IC50 ([1]; Mus musculus, L929, L929, Murine TNF-α/Z-VAD-FMK, 4-8 hours, CCK8): > 4 µM | inhibitory activity against human HT29 cells ([2]; HT29 necrosis): significantly inferior to those of the compounds of the present application | IC50 ([2]; Homo sapiens, HT-29, 16 h, HT29, Human TNF-α/AT-406/Z-VAD-FMK, 16 hours, CCK8): 400 to 4000 nM
